According to article PMC5564600 (Oncotarget, 2017):

What was measured:
Assay in all cases: biochemical
Format in all cases: binding
[1] = biological target: T1, panel of 442 kinases (Homo sapiens, UniProt Q14164); settings: kinase IKK-epsilon; for remaining activity at 1 µM: read-out: % of control at 1 µM
T1 construct: purchased Ambit Biosciences (scanMAXX KINOMEscan)
T1 sequence (Q14164 1-716): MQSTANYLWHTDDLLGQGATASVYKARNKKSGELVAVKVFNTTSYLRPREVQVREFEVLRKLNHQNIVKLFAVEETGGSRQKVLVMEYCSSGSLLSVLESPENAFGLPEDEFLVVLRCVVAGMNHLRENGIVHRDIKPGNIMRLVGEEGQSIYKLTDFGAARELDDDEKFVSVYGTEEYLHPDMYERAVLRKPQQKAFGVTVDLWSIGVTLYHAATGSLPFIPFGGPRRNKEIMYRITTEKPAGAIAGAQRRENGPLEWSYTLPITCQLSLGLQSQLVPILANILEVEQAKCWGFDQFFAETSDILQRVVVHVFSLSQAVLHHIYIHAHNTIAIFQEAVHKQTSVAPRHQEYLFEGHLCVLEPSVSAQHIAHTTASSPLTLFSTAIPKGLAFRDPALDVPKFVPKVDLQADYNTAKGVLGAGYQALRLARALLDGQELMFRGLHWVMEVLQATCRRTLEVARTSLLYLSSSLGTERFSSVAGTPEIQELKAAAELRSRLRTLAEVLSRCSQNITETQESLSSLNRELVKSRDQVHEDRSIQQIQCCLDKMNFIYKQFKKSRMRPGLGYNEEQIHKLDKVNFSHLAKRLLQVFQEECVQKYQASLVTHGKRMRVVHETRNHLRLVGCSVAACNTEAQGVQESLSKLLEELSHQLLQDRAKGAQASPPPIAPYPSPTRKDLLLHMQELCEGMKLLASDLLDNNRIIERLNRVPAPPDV

[2] = biological target: T2, panel of 442 kinases (Homo sapiens, UniProt Q05655); settings: kinase PRKCD; for remaining activity at 1 µM: read-out: PRKCD (% of control at 1 µM)
T2 construct: purchased Ambit Biosciences (scanMAXX KINOMEscan)
T2 sequence (Q05655 whole entry): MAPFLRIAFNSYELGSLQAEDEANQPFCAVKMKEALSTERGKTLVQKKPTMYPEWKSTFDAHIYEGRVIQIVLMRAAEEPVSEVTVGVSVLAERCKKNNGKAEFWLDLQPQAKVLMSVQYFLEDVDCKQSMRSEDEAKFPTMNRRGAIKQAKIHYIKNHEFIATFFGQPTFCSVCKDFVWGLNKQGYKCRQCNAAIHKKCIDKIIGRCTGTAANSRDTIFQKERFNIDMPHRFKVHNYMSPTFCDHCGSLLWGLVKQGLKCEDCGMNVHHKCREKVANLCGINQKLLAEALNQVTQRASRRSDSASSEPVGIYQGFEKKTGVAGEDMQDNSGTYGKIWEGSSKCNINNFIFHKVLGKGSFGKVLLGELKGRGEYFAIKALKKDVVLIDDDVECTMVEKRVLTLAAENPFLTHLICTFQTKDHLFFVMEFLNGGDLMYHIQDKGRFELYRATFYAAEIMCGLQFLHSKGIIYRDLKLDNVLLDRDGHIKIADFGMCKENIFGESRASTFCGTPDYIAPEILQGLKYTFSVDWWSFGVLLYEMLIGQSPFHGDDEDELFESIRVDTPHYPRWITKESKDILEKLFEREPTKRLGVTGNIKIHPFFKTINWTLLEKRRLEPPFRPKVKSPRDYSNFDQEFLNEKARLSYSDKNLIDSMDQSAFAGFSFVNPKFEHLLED

[3] = biological target: T3, panel of 442 kinases (Homo sapiens, UniProt P42679); settings: CTK; for remaining activity at 1 µM: read-out: % of control at 1 µM
T3 construct: purchased Ambit Biosciences (scanMAXX KINOMEscan)
T3 sequence (P42679 1-507): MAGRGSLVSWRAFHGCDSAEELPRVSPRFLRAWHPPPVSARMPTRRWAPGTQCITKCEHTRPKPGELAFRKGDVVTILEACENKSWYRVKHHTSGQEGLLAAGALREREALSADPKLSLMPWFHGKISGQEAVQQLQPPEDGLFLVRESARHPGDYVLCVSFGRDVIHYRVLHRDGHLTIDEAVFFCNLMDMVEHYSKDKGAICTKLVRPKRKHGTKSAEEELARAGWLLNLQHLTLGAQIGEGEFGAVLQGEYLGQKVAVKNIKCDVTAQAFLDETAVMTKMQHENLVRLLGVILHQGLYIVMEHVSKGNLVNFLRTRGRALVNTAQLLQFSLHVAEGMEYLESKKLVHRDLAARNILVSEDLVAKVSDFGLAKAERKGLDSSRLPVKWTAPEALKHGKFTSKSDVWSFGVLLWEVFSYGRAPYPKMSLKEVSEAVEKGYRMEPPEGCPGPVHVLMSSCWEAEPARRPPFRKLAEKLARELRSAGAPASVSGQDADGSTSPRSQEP

[4] = biological target: T4, panel of 442 kinases (Homo sapiens, UniProt Q13873); settings: BMPR2; for remaining activity at 1 µM: read-out: % of control at 1 µM
T4 construct: purchased Ambit Biosciences (scanMAXX KINOMEscan)
T4 sequence (Q13873 27-1038): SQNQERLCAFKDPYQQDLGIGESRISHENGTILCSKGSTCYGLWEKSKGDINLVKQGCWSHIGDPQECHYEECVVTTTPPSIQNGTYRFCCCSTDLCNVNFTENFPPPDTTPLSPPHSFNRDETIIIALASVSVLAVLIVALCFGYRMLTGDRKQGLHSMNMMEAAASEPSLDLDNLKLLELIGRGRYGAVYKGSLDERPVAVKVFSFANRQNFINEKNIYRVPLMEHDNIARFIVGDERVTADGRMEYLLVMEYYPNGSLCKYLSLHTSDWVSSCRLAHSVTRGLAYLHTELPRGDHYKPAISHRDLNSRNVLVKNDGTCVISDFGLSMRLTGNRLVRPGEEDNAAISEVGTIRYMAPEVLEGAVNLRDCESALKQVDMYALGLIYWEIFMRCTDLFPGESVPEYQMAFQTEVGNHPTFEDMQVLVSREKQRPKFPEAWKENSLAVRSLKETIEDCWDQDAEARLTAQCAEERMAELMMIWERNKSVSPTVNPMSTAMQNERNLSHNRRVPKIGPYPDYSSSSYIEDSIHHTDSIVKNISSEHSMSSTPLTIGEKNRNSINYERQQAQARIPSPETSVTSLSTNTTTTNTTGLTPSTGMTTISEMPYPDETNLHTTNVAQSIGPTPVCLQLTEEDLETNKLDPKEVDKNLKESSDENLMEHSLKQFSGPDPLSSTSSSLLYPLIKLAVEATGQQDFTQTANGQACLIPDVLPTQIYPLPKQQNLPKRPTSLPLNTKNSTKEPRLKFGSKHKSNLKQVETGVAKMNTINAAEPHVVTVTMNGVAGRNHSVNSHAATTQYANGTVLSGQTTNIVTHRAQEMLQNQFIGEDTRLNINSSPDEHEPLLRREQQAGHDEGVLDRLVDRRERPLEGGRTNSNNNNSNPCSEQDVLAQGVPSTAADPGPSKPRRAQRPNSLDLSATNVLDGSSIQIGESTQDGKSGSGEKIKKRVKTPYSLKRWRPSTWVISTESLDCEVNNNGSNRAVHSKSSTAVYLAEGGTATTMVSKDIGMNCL

[5] = biological target: T5, panel of 442 kinases (Homo sapiens, UniProt Q02750); settings: kinase MEK1; for remaining activity at 1 µM: read-out: % of control at 1 µM
T5 construct: purchased Ambit Biosciences (scanMAXX KINOMEscan)
T5 sequence (Q02750 whole entry): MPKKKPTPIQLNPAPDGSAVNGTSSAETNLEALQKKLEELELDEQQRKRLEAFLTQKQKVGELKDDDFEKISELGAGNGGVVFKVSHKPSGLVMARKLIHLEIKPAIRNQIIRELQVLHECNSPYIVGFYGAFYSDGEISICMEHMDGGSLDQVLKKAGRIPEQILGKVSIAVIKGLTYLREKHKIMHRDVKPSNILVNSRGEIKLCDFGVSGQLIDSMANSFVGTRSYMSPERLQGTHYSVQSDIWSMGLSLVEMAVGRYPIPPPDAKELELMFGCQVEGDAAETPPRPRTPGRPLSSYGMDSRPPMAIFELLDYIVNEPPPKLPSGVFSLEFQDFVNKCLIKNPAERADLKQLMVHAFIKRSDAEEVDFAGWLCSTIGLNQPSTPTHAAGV

[6] = 10 µM, read-out: % of control at 10 µM

Row | SMILES | remaining activity at 1 µM [1] | remaining activity at 10 µM [1, 6] | remaining activity at 1 µM [2] | remaining activity at 10 µM ([2]; 10 µM, read-out: PRKCD (% of control at 10 µM)) | remaining activity at 1 µM [3] | remaining activity at 10 µM [3, 6] | remaining activity at 1 µM [4] | remaining activity at 10 µM [4, 6] | remaining activity at 1 µM [5] | remaining activity at 10 µM [5, 6]
1 | Nc1cc(C(F)(F)F)c(-c2cc(N3CCOCC3)nc(N3CCOCC3)n2)cn1 [Buparlisib] | 78% | 100% | 100% | 100% | 100% | 100% | 86% | 88% | 100% | 100%
2 | COc1ncc(-c2ccc3nccc(-c4ccnnc4)c3c2)cc1NS(=O)(=O)c1ccc(F)cc1F [Omipalisib] | 100% | – | 74% | – | 100% | – | 100% | – | 100% | –
3 | FC(F)c1nc2ccccc2n1-c1nc(N2CCOCC2)nc(N2CCOCC2)n1 [ZSTK474, 2-(difluoromethyl)-1-[4,6-di(4-morpholinyl)-1,3,5-triazin-2-yl]-1H-benzimidazole] | 100% | – | 100% | – | 100% | – | 100% | – | 100% | –
4 | Cn1c(=O)n(-c2ccc(C(C)(C)C#N)cc2)c2c3cc(-c4cnc5ccccc5c4)ccc3ncc21 [Dactolisib, 2-methyl-2-[4-(3-methyl-2-oxo-8-quinolin-3-yl-2,3-dihydroimidazo[4,5-c]quinolin-1-yl)-phenyl] propionitrile] | 100% | – | 86% | – | 92% | – | 83% | – | 94% | –
